From PMC11443494, “Dynamical responses predict a distal site that modulates activity in an antibiotic resistance enzyme” (Chemical Science, 2024)
Read-outs that look alike come from different tables or passages of the source.

How the values were obtained:
KPC-2 [1] = biological target: T1, KPC-2 (Klebsiella pneumoniae, UniProt Q9F663); assay type: biochemical
T1 construct: made in house
Method: (§1) Antibiotic hydrolysis was measured at 25 °C in kinetics buffer (10 mM HEPES, pH 7.5 and 150 mM NaCl, 100 μg per mL bovine […] albumin (BSA)). […] Hydrolysis was followed using Greiner half area 96-well plates and a BMG CLARIOstar Plus microplate reader. GraphPad Prism 9.3.1 (GraphPad Software, La Jolla, CA, USA; https://www.graphpad.com) was used to calculate kinetic parameters. Initial rates of antibiotic hydrolysis measured across a range of antibiotic concentrations were used to calculate steady-state parameters according to the Michaelis–Menten equation.

KPC-2^G89D [2] = biological target: T2, KPC-2^G89D (Klebsiella pneumoniae, UniProt Q9F663, G88D); experiment: Steady-state kinetics of β-lactam hydrolysis by KPC-2^G89D; assay type: biochemical; conditions: for Kcat / K M: KPC-2^G89D, 25 °C, standard error in parentheses; for Kcat: 10 mM HEPES pH 7.5, 150 mM NaCl, BSA; for K M: pH 7.5; for decrease in catalytic efficiency (kcat/KM): KPC-2^G89D compared to wild-type KPC-2
T2 construct: made in house; host or cells: E. coli
T2 sequence (Q9F663 25-293 G88D): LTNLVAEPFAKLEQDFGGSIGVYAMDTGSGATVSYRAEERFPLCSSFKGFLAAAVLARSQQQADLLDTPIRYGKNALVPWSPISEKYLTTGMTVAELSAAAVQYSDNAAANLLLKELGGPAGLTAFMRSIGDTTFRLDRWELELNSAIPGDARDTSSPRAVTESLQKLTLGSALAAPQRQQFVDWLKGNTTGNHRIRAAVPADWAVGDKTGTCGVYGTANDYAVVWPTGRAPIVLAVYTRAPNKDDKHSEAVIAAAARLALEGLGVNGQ
Method: as §1

SHV-1 = system: SHV-1; design: method as in Liakopoulos et al. [2]; conditions: ND = no detected hydrolysis, ref Liakopoulos et al. [2]; cited from earlier work
SHV-2 = system: SHV-2; design: method as in Liakopoulos et al. [2]; conditions: ref Liakopoulos et al. [2], cited from earlier work
SHV-38 = system: SHV-38; design: method as in Poirel et al [3]; conditions: ref Poirel et al [3]; cited from earlier work
KPC-2 [3] = biological target: T1, KPC-2; experiment: Pre-steady-state (stopped-flow tryptophan fluorescence) binding kinetics, KPC-2
Method: (§2) Pre-steady state kinetics were measured by mixing meropenem with KPC-2 or KPC-2^G89D (both 10 nM concentration) in an Applied Photophysics SX20 stopped-flow spectrometer connected to a photodiode array detector in kinetics buffer. Data were fitted from 0.005 to 0.3 s for both 5 repeats of each of KPC-2 : meropenem and KPC-2^G89D : meropenem. k1 and k−1 were calculated from the gradient and the y-intercept of the kobsvs. substrate concentration curves. KD is calculated using the following equation: [drawing 1]
(§3) Figure S11: Binding kinetics of meropenem calculated using pre-steady state kinetics. a) Kinetic model for binding and hydrolysis of β-lactam substrates by serine β-lactamases. KD is calculated by k-1 / k1. Normalised tryptophan fluorescence curves, averaged over 5 transients, measured from 0.005 s to 0.25 s, for meropenem binding to KPC-2 (b) and KPC-2G89D (both at 10 nM) (c) were used to calculate kobs over a range of concentrations using one phase decay curve fitting. kobs was plotted for KPC-2 (d) and KPC-2G89D (e), and a linear regression used to calculate the y-intercept (k-1) and the slope (k 1). The calculated KD values are 3.7 μM and 5.9 μM for KPC-2 and KPC-2G89D. […]

KPC-2^G89D [4] = biological target: T2, KPC-2^G89D; experiment: Pre-steady-state (stopped-flow tryptophan fluorescence) binding kinetics, KPC-2^G89D
Method: as §2, §3

KPC-2^G89D [5] = biological target: T2, KPC-2^G89D; experiment: Inhibition of nitrocefin hydrolysis (IC50), KPC-2^G89D; assay type: biochemical; conditions: nitrocefin 200 μM, 10 minute pre-incubation of enzyme and inhibitor
KPC-2 [6] = biological target: T1, KPC-2; experiment: Inhibition of nitrocefin hydrolysis (IC50), KPC-2; assay type: biochemical; conditions: wild-type KPC-2; nitrocefin 200 μM, 10 minute pre-incubation
Method: Both inhibitors were dissolved in kinetics buffer.

[7] = KPC-2, 25 °C, 10 mM HEPES pH 7.5, 150 mM NaCl, BSA, standard error in parentheses
[8] = KPC-2, 25 °C, pH 7.5, standard error in parentheses

T1 sequence (Q9F663 25-293 limits assumed): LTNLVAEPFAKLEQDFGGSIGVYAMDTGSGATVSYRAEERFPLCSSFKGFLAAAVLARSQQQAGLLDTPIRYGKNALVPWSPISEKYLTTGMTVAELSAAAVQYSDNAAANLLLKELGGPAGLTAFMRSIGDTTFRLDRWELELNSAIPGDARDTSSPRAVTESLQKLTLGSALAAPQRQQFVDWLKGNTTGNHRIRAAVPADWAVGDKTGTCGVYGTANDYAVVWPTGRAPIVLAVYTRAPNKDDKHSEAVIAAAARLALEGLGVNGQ

Structure (SMILES)	Kcat (KPC-2^G89D [2])	K M (KPC-2^G89D [2])	Km (SHV-2; ND = no detected hydrolysis) [µM]	Vmax (SHV-2) [µM/min]	Kcat (SHV-38) [s⁻¹]	Km (SHV-38) [µM]	also measured
CC1(C)S[C@@H]2[C@H](NC(=O)[C@H](N)c3ccccc3)C(=O)N2[C@H]1C(=O)O [Ampicillin]	160 (5.83) s^−1	201 (36.3) μM					K M (KPC-2 [1]; pH 7.5): 271 (44.7) μM; Kcat (KPC-2 [1]; pH 7.5): 82.3 (3.92) s^−1
CC1(C)S[C@@H]2[C@H](NC(=O)Cc3ccccc3)C(=O)N2[C@H]1C(=O)O [Benzylpenicillin]			3.8	100	100	13	Kcat (SHV-1): 455 s⁻¹; Km (SHV-1): 20 µM
CO/N=C(\C(=O)N[C@@H]1C(=O)N2C(C(=O)O)=C(COC(C)=O)CS[C@H]12)c1csc(N)n1 [Cefotaxime]			18	70	1	800	Kcat (SHV-2; ND = no detected hydrolysis): 11 s⁻¹
CC(C)(O/N=C(\C(=O)N[C@@H]1C(=O)N2C(C(=O)[O-])=C(C[n+]3ccccc3)CS[C@H]12)c1csc(N)n1)C(=O)O [Ceftazidime]			24	6.5	110	3800	
CC(=O)OCC1=C(C(=O)O)N2C(=O)[C@@H](NC(=O)Cc3cccs3)[C@H]2SC1 [Cephalothin]					5	100	Kcat (SHV-1): 10 s⁻¹; Km (SHV-1): 26 µM
C[C@@H](O)[C@H]1C(=O)N2C(C(=O)O)=C(SCCN=CN)C[C@H]12 [Imipenem]	2.8 (0.12) s^−1	68.9 (10.2) μM			0.01	24	Kcat (KPC-2 [1]; [7]): 22 (0.43) s^−1; K M (KPC-2 [1]; [8]): 72 (3.2) μM; decrease in catalytic efficiency (kcat/KM) (KPC-2^G89D [2]): 10 fold
C[C@@H](O)[C@H]1C(=O)N2C(C(=O)O)=C(S[C@@H]3CN[C@H](C(=O)N(C)C)C3)[C@H](C)[C@H]12 [Meropenem]	0.2 (1 × 10^−2) s^−1	7.9 (1.57) μM					Kcat (KPC-2 [1]; [7]): 21.5 (0.12) s^−1; K M (KPC-2 [1]; [8]): 7.1 (1.01) μM; Kd (KPC-2 [3]): 3700 nM; decrease in catalytic efficiency (kcat/KM) (KPC-2^G89D [2]): 100 fold; Kd (KPC-2^G89D [4]): 5900 nM
O=C(NNC(=O)[C@@H]1CC[C@@H]2CN1C(=O)N2OS(=O)(=O)O)[C@@H]1CCCNC1 [Zidebactam]							IC50 (KPC-2^G89D [5]): 0.7 nM; IC50 (KPC-2 [6]): 0.06 nM
